Columns and labels:
CB1 mRNA = experiment: Gene expression (real-time PCR) of cannabinoid receptor 1 in duodenal and ileal mucosa at d14; type: in vivo, pigs
Protocol: (§1) At the end of the study, 8 animals from each treatment group were sacrificed, samples were collected, and analysed. Duodenal and ileal mucosal scrapings were collected. The duodenum and ileum were longitudinally cut to expose the mucosa, washed with a phosphate-buffered saline solution to remove mucus and digesta, then scraped gently, packed, immediately frozen in liquid nitrogen and stored at -80° C. until the analyses of gene and protein expression. Gene expression was analysed using the method reported by […] et al. [The Journal of Nutrition. 2011; 141:2139-45]. Duodenal and ileal scraping samples obtained on d14 of the study were disrupted by grinding them in liquid nitrogen with mortar and pestle, and then homogenised using a TissueLyser (Qiagen, Hilden, Germany). Total RNA was isolated using a NucleoSpin® RNA Kit (Macherey-Nagel, Düren, Germany) according to the manufacturer's instructions. Genomic DNA contamination was removed by treating the samples with the deoxyribonuclease supplied in the extraction kit ([…], RNase-free; Macherey-Nagel). The RNA yield and quality were determined spectrophotometrically by measuring the absorbance at 260 and 280 nm (A260 and A280 nm, respectively) (Microvolume Mode with SmartPath® Technology, Denovix). One microgram of RNA was reverse transcribed using the iScript cDNA Synthesis Kit (Bio-Rad Laboratories Inc., Hercules, Calif., USA) according to the manufacturer's instructions. Real-time PCR was performed using an iCycler Thermal Cycler system and SybrGreen Supermix (Bio-Rad Laboratories Inc.). […] The average threshold cycle (CT) was determined for each gene of interest, and the geometric average was calculated for HK by assuming that CT is the number of cycles required to reach a fixed arbitrary threshold. Delta CT was calculated, then a modification of the 2^-ΔΔCT method [Livak K J, et al., Methods 2001; 25:402-8] was used to analyse the relative expression (fold changes), which was calculated relative to the control group. […]

CB2 mRNA = experiment: Gene expression (real-time PCR) of cannabinoid receptor 2 in duodenal and ileal mucosa at d14; type: in vivo, pigs
Protocol: At the end of the study, 8 animals from each treatment group were sacrificed, samples were collected, and analysed. Duodenal and ileal mucosal scrapings were collected. The duodenum and ileum were longitudinally cut to expose the mucosa, washed with a phosphate-buffered saline solution to remove mucus and digesta, then scraped gently, packed, immediately frozen in liquid nitrogen and stored at -80° C. until the analyses of gene and protein expression. Gene expression was analysed using the method reported by […] et al. [The Journal of Nutrition. 2011; 141:2139-45]. Duodenal and ileal scraping samples obtained on d14 of the study were disrupted by grinding them in liquid nitrogen with mortar and pestle, and then homogenised using a TissueLyser (Qiagen, Hilden, Germany). Total RNA was isolated using a NucleoSpin® RNA Kit (Macherey-Nagel, Düren, Germany) according to the manufacturer's instructions. Genomic DNA contamination was removed by treating the samples with the deoxyribonuclease supplied in the extraction kit ([…], RNase-free; Macherey-Nagel). The RNA yield and quality were determined spectrophotometrically by measuring the absorbance at 260 and 280 nm (A260 and A280 nm, respectively) (Microvolume Mode with SmartPath® Technology, Denovix). One microgram of RNA was reverse transcribed using the iScript cDNA Synthesis Kit (Bio-Rad Laboratories Inc., Hercules, Calif., USA) according to the manufacturer's instructions. Real-time PCR was performed using an iCycler Thermal Cycler system and SybrGreen Supermix (Bio-Rad Laboratories Inc.). The thermocycling protocol provided for an initial denaturation step for 1 min and 30 seconds at 95° C., followed by 40 cycles of denaturation at 95° C. for 15 seconds and 30 seconds of annealing and extension at 60° C. After amplification, a melting curve analysis was performed for all the samples, with slow heating from 55° C. to 95° C. at a rate of 0.5° C./s to validate the absence of non-specific products. Gene expression was normalised to a housekeeping gene (HK) encoding portions of porcine ribosomal subunit 60 S, in particular ribosomal protein […] (RPL35). The average threshold cycle (CT) was determined for each gene of interest, and the geometric average was calculated for HK by assuming that CT is the number of cycles required to reach a fixed arbitrary threshold. Delta CT was calculated, then a modification of the 2^-ΔΔCT method [Livak K J, et al., Methods 2001; 25:402-8] was used to analyse the relative expression (fold changes), which was calculated relative to the control group. The sequences, accession numbers in the EMBL database/GenBank, expected product lengths and references for porcine primers are reported in Table 2. […]

OR1G1 mRNA = experiment: Gene expression (real-time PCR) of gut chemosensing marker OR1G1 in duodenal and ileal mucosa at d14; type: in vivo, pigs
Protocol: (§2) At the end of the study, 8 animals from each treatment group were sacrificed, samples were collected, and analysed. Duodenal and ileal mucosal scrapings were collected. The duodenum and ileum were longitudinally cut to expose the mucosa, washed with a phosphate-buffered saline solution to remove mucus and digesta, then scraped gently, packed, immediately frozen in liquid nitrogen and stored at -80° C. until the analyses of gene and protein expression. Gene expression was analysed using the method reported by […] et al. [The Journal of Nutrition. 2011; 141:2139-45]. […] The RNA yield and quality were determined spectrophotometrically by measuring the absorbance at 260 and 280 nm (A260 and A280 nm, respectively) (Microvolume Mode with SmartPath® Technology, Denovix). […] The average threshold cycle (CT) was determined for each gene of interest, and the geometric average was calculated for HK by assuming that CT is the number of cycles required to reach a fixed arbitrary threshold. Delta CT was calculated, then a modification of the 2^-ΔΔCT method [Livak K J, et al., Methods 2001; 25:402-8] was used to analyse the relative expression (fold changes), which was calculated relative to the control group. […]

TRPV1 mRNA = experiment: Gene expression (real-time PCR) of gut chemosensing marker TRPV1 in duodenal and ileal mucosa at d14; type: in vivo, pigs; conditions: for TRPV1 mRNA levels compared to the control group: ileum, d14, P=0.0183
Protocol: as §1

[1] = weaned piglets, 25.5-510 mg thymol/kg feed
Protocol: […] piglets (Duroc—Large White) weaned at 28 days of age and with a body weight (BW) of 7.71±1.00 kg were divided into 40 pens (4 piglets per pen, castrated males and females were placed in separate pens) and randomly assigned to one of the following experimental groups (n=32): control group fed with the basal diet (T1), a group fed with the basal diet supplemented with 25.5 mg of thymol/kg feed (T2), a group fed with the basal diet supplemented with 51 mg of thymol/kg feed (T3), a group fed with the basal diet supplemented with 153 mg of thymol/kg feed (T4) and a group fed with the basal diet supplemented with 510 mg of thymol/kg feed (T5). Thymol was provided in a form embedded (microencapsulated) in a lipid matrix (Vetagro SpA, Reggio Emilia, Italy). Concentrations of thymol were selected to meet or exceed the upper limit of inclusion in food and feed established by the European Agency for the Evaluation of Medicinal Products and for the feed. The basal feed was formulated to meet or exceed the nutritional requirements of pigs according to the National Research Council, and feed and water were provided ad libitum (the composition of the basal diet is reported in Table 1). The health condition of the animals was monitored during the study. The piglets were individually weighed at the beginning (day 0) and end (day 14) of the study. Growth parameters, such as FI, ADFI, ADG and F:G (FI—feed intake; ADFI—Average daily feed intake; ADG—Average daily gain; F:G—Feed to gain ratio), were measured in the animals housed in each pen on day 14 (d14) of the experiment.
Animals were blocked in a completely randomised design and data were analysed using GraphPad Prism® software (GraphPad Software, Inc., La Jolla, Calif., USA). Data were analysed using one-way ANOVA followed by Tukey's post hoc test to detect differences among treatments. The pen was the experimental unit for growth performance, whereas the pig was the experimental unit for gene expression. Differences were considered significant at P<0.05, and trends were defined at 0.05≤P<0.1.

FAAH mRNA = experiment: Gene expression (real-time PCR) of ECS enzyme FAAH in duodenal and ileal mucosa at d14; type: in vivo, pigs
Protocol: as §2

Q: With `Cc1ccc(C(C)C)c(O)c1` [thymol] as the compound, how does the “level of the CB1 mRNA compared to the control group” value (CB1 mRNA; duodenum, group T5 (510 mg thymol/kg feed), d14, P=0.0209) read?
A: Its value is “significantly increased”.

Q: And the “level of the CB1 mRNA compared to the control group” value (CB1 mRNA; ileum, group T4 (153 mg thymol/kg feed), d14, P=0.0054)?
A: The value was “significantly increased”.

Q: What about the “level of the CB1 mRNA compared to the control group” value (CB1 mRNA; ileum, group T5 (510 mg thymol/kg feed), d14, P=0.0054) of the same compound?
A: Its value is “significantly increased”.

Q: And the “levels of the CB2 mRNA compared to the control group” value (CB2 mRNA; duodenum, group T4 (153 mg thymol/kg feed), d14, P=0.004)?
A: The value was “Significantly increased”.

Q: And the “levels of the CB2 mRNA compared to the control group” value (CB2 mRNA; duodenum, group T5 (510 mg thymol/kg feed), d14, P=0.004)?
A: Its value is “Significantly increased”.

Q: What about the “levels of the CB2 mRNA compared to the control group” value (CB2 mRNA; ileum, group T4 (153 mg thymol/kg feed), d14, P=0.0162) of the same compound?
A: The value was “Significantly increased”.

Q: What about the “levels of the CB2 mRNA compared to the control group” value (CB2 mRNA; ileum, group T5 (510 mg thymol/kg feed), d14, P=0.0162) of the same compound?
A: Its value is “Significantly increased”.

Q: What about the “OR1G1 mRNA expression compared to the control group” value (OR1G1 mRNA; duodenum, 510 mg thymol/kg feed (T5), d14, P=0.0210) of the same compound?
A: The value was “higher levels”.

Q: And the “OR1G1 mRNA expression compared to the control group” value (OR1G1 mRNA; ileum, 153 mg thymol/kg feed (T4), d14, P=0.0235)?
A: Its value is “higher levels”.

Q: What about the “TRPV1 mRNA level” value (TRPV1 mRNA; duodenum, 510 mg thymol/kg of feed, d14, P=0.0382) of the same compound?
A: The value was “increased”.

Q: What about the “TRPV1 mRNA levels compared to the control group” value (TRPV1 mRNA; group T4 (153 mg thymol/kg feed)) of the same compound?
A: The value was “increased”.

Q: And the “TRPV1 mRNA levels compared to the control group” value (TRPV1 mRNA; group T5 (510 mg thymol/kg feed))?
A: The value was “increased”.

Q: What about the health conditions ([1]; 14 days) of the same compound?
A: Its health conditions is “good health conditions”.

Q: What about the mortality ([1]; 14 days) of the same compound?
A: The mortality was “no mortality”.

Q: What about the “differences in average daily feed intake (ADFI) among the treatment groups” value ([1]; day 14, data not shown) of the same compound?
A: The value was “not observed”.

Q: What about the “differences in average daily gain (ADG) among the treatment groups” value ([1]; day 14, data not shown) of the same compound?
A: The value was “not observed”.

Q: And the “differences in body weight (BW) among the treatment groups” value ([1]; day 14, data not shown)?
A: The value was “not observed”.

Q: And the “differences in feed intake (FI) among the treatment groups” value ([1]; day 14, data not shown)?
A: The value was “not observed”.

Q: What about the “differences in feed to gain ratio (F:G) among the treatment groups” value ([1]; day 14, data not shown) of the same compound?
A: The value was “not observed”.

Q: And the “differences in FAAH mRNA levels” value (FAAH mRNA; duodenum, all thymol groups (25.5-510 mg/kg feed), d14)?
A: Its value is “not observed”.

Q: What about the “FAAH mRNA levels compared to the control group” value (FAAH mRNA; ileum, group T4 (153 mg thymol/kg feed), d14, P=0.0028) of the same compound?
A: Its value is “significantly increased”.

From patent US20230233482A1, “COMPOSITIONS COMPRISING THYMOL FOR USE IN THE TREATMENT OF INFLAMMATORY OR FUNCTIONAL BOWEL DISORDERS BY MODULATING THE ENDOCANNABINOID SYSTEM” (priority 2020, published 2023)
